Laboratory results reported in US8829202B2, “Condensed polycyclic aromatic compound, aromatic polymer, and method for synthesizing aromatic compound” (Teijin Limited, priority 2011, dated 2014).
Values joined by “and” are separate entries in the source; they are usually repeats but may differ in a detail not shown here. Equal entries are not always repeated.

experiment: Solubility of the obtained compound in chloroform; format: physicochemical; details: solvent chloroform

Row | solubility in chloroform | Molecule
1 | 2.3 wt % | CCCCCCCCC#Cc1c2ccccc2cc2sc3c(sc4cc5ccccc5c(C#CCCCCCCCC)c43)c12 [di-1-dysine-substituted DNTT, Di-1-dysine-substituted dinaphthothienothiophene]
2 | 6.5 wt % | CCCCCCCCCCCCC#Cc1c2ccccc2cc2sc3c(sc4cc5ccccc5c(C#CCCCCCCCCCCCC)c43)c12 [di-1-tetradysine-substituted DNTT, di-1-tetradecyne-substituted DNTT]
3 | 0.05 wt % | CCCCCCCCCCc1c2ccccc2cc2sc3c(sc4cc5ccccc5c(CCCCCCCCCC)c43)c12 [di-decane-substituted DNTT]
4 | 0.2 wt % | Di-triisopropylsilylacetylene-substituted dinaphthothienothiophene [di-TIPS-substituted DNTT]
5 | 0.51 wt % | Di-triisopropylsilylethane-substituted DNTT

Row | Molecule | solubility in chloroform
6 | CC[Si](C#Cc1c2ccccc2cc2sc3c(sc4cc5ccccc5c(C#C[Si](CC)(CC)CC)c43)c12)(CC)CC [Di-triethylsilylacetylene-substituted DNTT] | 0.10 wt % and 0.13 wt %
7 | C[Si](C)(C)C#Cc1c2ccccc2cc2sc3c(sc4cc5ccccc5c(C#C[Si](C)(C)C)c43)c12 [Di-trimethylsilylacetylene-substituted DNTT] | 0.05 wt %

same assay, conditions: solvent chloroform; DNTT used as raw material

Row | solubility in chloroform (in words) | Molecule
8 | substantially not dissolved | c1ccc2cc3c(cc2c1)sc1c2cc4ccccc4cc2sc31 [DNTT, Dinaphthothienothiophene, reference compound]

same assay, conditions: solvent chloroform; listed as di-1-tetradesyne-substituted DNTT

Row | solubility in chloroform [wt %] | Molecule
9 | 1.67 | CCCCCCCCCCCCC#Cc1c2ccccc2cc2sc3c(sc4cc5ccccc5c(C#CCCCCCCCCCCCC)c43)c12 [di-1-tetradysine-substituted DNTT, di-1-tetradecyne-substituted DNTT]
